Key:
[1] = molecular target: A-Raf kinase (SEQ. ID No: 1) (Homo sapiens (Human), UniProt P10398, Y301D/Y302D); assay: Biochemical Assay for A-Raf (1); settings: Table J, assay version (1); read-out: ARAF (1) IC50
In short: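 IC50 values were derived by four-parameter sigmoidal fitting of percent inhibition, calculated from reaction rates over the 4–5 h window. Absorbance at 340 nm was tracked for 6 h at 30 °C via coupled PK/LDH NADH depletion. Conditions: 1 mM ATP, 30.1 nM MEK substrate, 5.55 nM A-Raf (Y301D/Y302D), Tris pH 7.5, 1% DMSO.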

[2] = molecular target: B-Raf kinase (SEQ. ID NO: 2) (Homo sapiens (Human), UniProt P15056); assay: Biochemical Assay for B-Raf (1); settings: Table J, assay version (1); read-out: BRAF (1) IC50
In short: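 IC50 derived by four-parameter sigmoidal fit of percent inhibition, normalised to uninhibited and reference-inhibitor controls, using reaction rates over 4–5 h. Coupled spectrophotometric readout (NADH loss at 340 nm, 6 h, 30° C.); 1 mM ATP, 30.1 nM MEK, 0.13 nM B-Raf, pH 7.5 Tris buffer, 1% DMSO.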

A375 cells = assay: A375 Cell Proliferation Assay (1); assay type: cell-based; settings: Homo sapiens, A-375
In short: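 Resazurin fluorescence (excitation 540 nm, emission 600 nm, after a further 5-6 h) gave IC50s from triplicate compound dilution series.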

WM3928 cells = assay: WM3928 Cell Proliferation Assay (1); assay type: cell-based
In short: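 IC50 was derived from resazurin fluorescence (ex 540, em 600 nm) after a 6–7 h dye incubation. Before that, cells had 67–72 h of compound exposure at 37 °C, 5% CO2.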

B-Raf kinase (SEQ. ID NO: 2), sequence (P15056 416-766): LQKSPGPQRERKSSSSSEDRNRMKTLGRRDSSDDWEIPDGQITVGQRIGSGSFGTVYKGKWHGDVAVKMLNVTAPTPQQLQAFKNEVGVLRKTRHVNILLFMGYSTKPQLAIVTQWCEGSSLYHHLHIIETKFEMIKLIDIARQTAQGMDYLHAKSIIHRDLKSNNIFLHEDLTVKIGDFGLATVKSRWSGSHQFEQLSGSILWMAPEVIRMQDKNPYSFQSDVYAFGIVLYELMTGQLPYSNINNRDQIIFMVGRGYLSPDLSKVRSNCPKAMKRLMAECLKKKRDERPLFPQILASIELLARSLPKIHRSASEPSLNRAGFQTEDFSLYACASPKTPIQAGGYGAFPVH
A-Raf kinase (SEQ. ID No: 1), sequence (P10398 other isoform, or with tags, fused parts or gaps Y301D (already in the parent)/Y302D (already in the parent)): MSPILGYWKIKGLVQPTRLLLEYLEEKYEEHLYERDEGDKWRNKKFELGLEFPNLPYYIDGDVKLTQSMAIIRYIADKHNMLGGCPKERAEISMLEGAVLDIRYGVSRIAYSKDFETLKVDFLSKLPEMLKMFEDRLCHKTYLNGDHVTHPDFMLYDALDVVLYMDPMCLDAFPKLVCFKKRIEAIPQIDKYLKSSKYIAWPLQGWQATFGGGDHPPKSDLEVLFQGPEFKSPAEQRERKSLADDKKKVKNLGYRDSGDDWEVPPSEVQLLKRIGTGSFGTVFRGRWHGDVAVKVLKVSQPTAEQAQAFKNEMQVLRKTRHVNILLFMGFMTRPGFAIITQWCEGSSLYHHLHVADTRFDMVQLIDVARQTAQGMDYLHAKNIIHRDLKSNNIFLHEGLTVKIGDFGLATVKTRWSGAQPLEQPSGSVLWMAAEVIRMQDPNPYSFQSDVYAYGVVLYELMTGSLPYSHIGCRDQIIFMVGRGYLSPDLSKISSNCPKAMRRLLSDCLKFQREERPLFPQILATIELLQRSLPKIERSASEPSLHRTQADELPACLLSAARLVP

Structure (SMILES) | IC50 [1] [nM] | IC50 [2] [nM] | IC50 (A375 cells) [nM] | IC50 (WM3928 cells) [nM]
CC(=O)Nc1cc(-c2cc(-c3cc(NC(=O)c4ccnc(C(F)(F)F)c4)ccc3C)cn(C)c2=O)ccn1 [Example 21, N-(3-(2′-acetamido-1-methyl-2-oxo-1,2-dihydro-[3,4′-bipyridin]-5-yl)-4-methylphenyl)-2-(trifluoromethyl)isonicotinamide] | 1000 to 10000 | ≤ 100 | 1000 to 10000 | 
Cc1ccc(NC(=O)c2ccnc(C(C)(C)C#N)c2)cc1-c1nccc(-c2ccnc3c2CC(=O)N3)n1 [Example 22] | 1000 to 10000 | ≤ 100 | 1000 to 10000 | ≤ 100
Cc1ccc(NC(=O)c2ccnc(C(C)(C)C#N)c2)cc1-c1ccnc(-c2ccnc3c2CC(=O)N3)c1 [Example 23] | 1000 to 10000 | ≤ 100 | ≤ 100 | ≤ 100
CC(=O)Nc1cc(-c2nccc(-c3cc(NC(=O)c4ccnc(C(F)(F)F)c4)ccc3C)n2)ccn1 [Example 24] | 500 to 1000 | ≤ 100 | ≤ 100 | ≤ 100
CNC(=O)c1cc(-c2nccc(-c3cc(NC(=O)c4ccnc(C(F)(F)F)c4)ccc3C)n2)ccn1 [Example 25] | 1000 to 10000 | ≤ 100 | 500 to 1000 | 500 to 1000
CC(=O)Nc1cc(-c2cc(-c3cc(C(=O)Nc4ccnc(C(F)(F)F)c4)ccc3C)ccn2)ccn1 [Example 26] | 1000 to 10000 | ≤ 100 | 100 to 500 | 
CNC(=O)c1cc(-c2cc(-c3cc(NC(=O)c4ccnc(C(F)(F)F)c4)ccc3C)cc(C3CC3)n2)ccn1 [Example 27] | 1000 to 10000 | 100 to 500 | ≤ 100 | ≤ 100
CC(=O)Nc1cc(-c2cccc(-c3cc(NC(=O)c4ccnc(C(F)(F)F)c4)ccc3C)c2)ccn1 [Example 28] | 500 to 1000 | ≤ 100 | ≤ 100 | 
CC(=O)Nc1cc(-c2cncc(-c3cc(NC(=O)c4ccnc(C(F)(F)F)c4)ccc3C)n2)ccn1 [Example 29] | 1000 to 10000 | ≤ 100 | 100 to 500 | ≤ 100
CC(=O)Nc1cc(-c2cccc(-c3cc(NC(=O)c4ccnc(C(F)(F)F)c4)ccc3C)c2)ncn1 [Example 30] | 500 to 1000 | ≤ 100 | ≤ 100 | ≤ 100
CNC(=O)c1cc(-c2cc(-c3cc(C(=O)Nc4ccnc(C(F)(F)F)c4)ccc3C)ccn2)ccn1 [Example 31] | 1000 to 10000 | 100 to 500 | 1000 to 10000 | 
Cc1ncc(NC(=O)c2cncc(C(F)F)c2)cc1-c1cccc(-c2cc(NC(=O)C3CC3)ncn2)c1 [Example 280] | 1000 to 10000 | ≤ 100 | 100 to 500 | ≤ 100
Cc1ncc(NC(=O)c2cn(C(C)C)nn2)cc1-c1ccnc(-c2ccnc(NC(=O)C3CC3)c2)n1 [Example 281] | 1000 to 10000 | ≤ 100 | 1000 to 10000 | 1000 to 10000
COC(=O)Nc1cc(-c2cccc(-c3cc(NC(=O)c4ccnc(C(C)(C)C#N)c4)cnc3C)c2)ccn1 [Example 282] | 1000 to 10000 | ≤ 100 | ≤ 100 | 100 to 500
Cc1ncc(NC(=O)c2cnn(C(C)(C)C)c2)cc1-c1ccnc(-c2ccnc(NC(=O)C3CC3)c2)n1 [Example 283] | 1000 to 10000 | ≤ 100 | 100 to 500 | 100 to 500
Cc1ccc(NC(=O)c2cnnc(C3CC3)c2)cc1-c1cccc(-c2cc(NC(=O)C3CC3)ncn2)c1 [Example 284] | 500 to 1000 | ≤ 100 | ≤ 100 | ≤ 100
Cc1ncc(NC(=O)c2cn(C(C)C)nn2)cc1-c1nccc(-c2ccnc(NC(=O)C3CC3)c2)n1 [Example 285] | 1000 to 10000 | ≤ 100 | 1000 to 10000 | 1000 to 10000
Cc1nc(-c2ccnc(NC(=O)C3CC3)c2)cc(-c2cc(NC(=O)c3ccnc(C4(C#N)CC4)c3)cnc2C)n1 [Example 286] | 1000 to 10000 | ≤ 100 | 500 to 1000 | 100 to 500
Cc1nc(-c2ccnc(NC(=O)C3CC3)c2)cc(-c2cc(NC(=O)c3ccnc(C4CC4)c3)cnc2C)n1 [Example 287] | 1000 to 10000 | ≤ 100 | 1000 to 10000 | 100 to 500
Cc1ncc(NC(=O)c2cnnc(C3CC3)c2)cc1-c1nccc(-c2ccnc(NC(=O)C3CC3)c2)n1 [Example 294] | 1000 to 10000 | ≤ 100 | 1000 to 10000 | 
COC(=O)Nc1cc(-c2cnnc(-c3cc(NC(=O)c4cccc(C(C)(C)C#N)c4)ccc3C)c2)ccn1 [Example 311] | 1000 to 10000 | ≤ 100 | ≤ 100 | 
COC(C)(C)c1cc(C(=O)Nc2ccc(C)c(-c3cc(-c4ccnc(NC(=O)C5CC5)c4)cnn3)c2)ccn1 [Example 319] | 1000 to 10000 | ≤ 100 | ≤ 100 | 
Cc1ccc(NC(=O)C2CN(C)CCO2)cc1-c1cccc(-c2cc(NC(=O)C3CC3)ncn2)c1 (stereo not drawn) [Example 346] | 1000 to 10000 | ≤ 100 | 1000 to 10000 | 
CO[C@H]1CC[C@H](C(=O)Nc2cnc(C)c(-c3cccc(-c4cc(NC(=O)C5CC5)ncn4)c3)c2)CC1 [Example 347] | 1000 to 10000 | 500 to 1000 | 1000 to 10000 | 
CNC(=O)c1cc(-c2cc(-c3cc(NC(=O)CCC(C)(C)C#N)ccc3C)ccn2)ccn1 [Example 357] | 1000 to 10000 | 100 to 500 | 1000 to 10000 | 
COC(=O)Nc1cc(-c2cnnc(-c3cc(NC(=O)CN4CCCC4)cnc3C)c2)ccn1 [Example 359] | 1000 to 10000 | 1000 to 10000 | 1000 to 10000 | 
COCCNC(=O)c1cc(-c2cnnc(-c3cc(NC(=O)c4cccc(C5CC5)c4)ccc3C)c2)ccn1 [Example 365] | 1000 to 10000 | 100 to 500 | 1000 to 10000 | 
Cc1ccc(NC(=O)c2cc(C(C)(C)C)no2)cc1-c1cc(-c2ccnc(NC(=O)C3CC3)c2)cnn1 [Example 367] | 1000 to 10000 | ≤ 100 | 100 to 500 | 
COC(=O)Nc1cc(-c2cnnc(-c3cc(NC(=O)CC4CCCC4)cnc3C)c2)ccn1 [Example 368] | 1000 to 10000 | 1000 to 10000 | 1000 to 10000 | 
Cc1ccc(NC(=O)c2ccnc(C(C)(C)C#N)c2)cc1-c1cc(-c2ccnc3[nH]ccc23)cnn1 [Example 369] | 1000 to 10000 | ≤ 100 | 1000 to 10000 | 

The next lines start with results.

IC50 [1] [nM] | IC50 [2] [nM] | IC50 (A375 cells) [nM] | Structure (SMILES) | IC50 (WM3928 cells) [nM]
1000 to 10000 | 100 to 500 | 1000 to 10000 | COC(=O)Nc1cc(-c2cnnc(-c3cc(NC(=O)c4ccnc(C(C)(C)C#N)c4)cnc3C)c2)ccn1 [Example 306] | 
1000 to 10000 | 1000 to 10000 | 1000 to 10000 | CNC(=O)c1cc(-c2cnnc(-c3cc(NC(=O)c4ccnc(C(C)(C)F)c4)cnc3C)c2)ccn1 [Example 309] | 
1000 to 10000 | ≤ 100 | 100 to 500 | Cc1ncc(NC(=O)c2ccnc(C(C)(C)F)c2)cc1-c1cc(-c2ccnc(NC(=O)C3CC3)c2)cnn1 [Example 310] | 
1000 to 10000 | 500 to 1000 | 1000 to 10000 | CNC(=O)c1cc(-c2cnnc(-c3cc(NC(=O)c4ccnc(C(C)(C)C#N)c4)cnc3C)c2)ccn1 [Example 316] | 
1000 to 10000 | 500 to 1000 | 1000 to 10000 | CNC(=O)c1cc(-c2cnnc(-c3cc(NC(=O)c4ccnc(C5CC5)c4)cnc3C)c2)ccn1 [Example 317] | 
1000 to 10000 | 500 to 1000 | 1000 to 10000 | CNC(=O)c1cc(-c2cnnc(-c3cc(NC(=O)c4ccnc(C(F)(F)F)c4)cnc3C)c2)ccn1 [Example 318] | 
1000 to 10000 | 1000 to 10000 | 1000 to 10000 | CNC(=O)c1cc(-c2cnnc(-c3cc(NC(=O)c4ccc(Cl)c(OC)c4)cnc3C)c2)ccn1 [Example 322] | 
1000 to 10000 | 500 to 1000 | 1000 to 10000 | CNC(=O)c1cc(-c2cnnc(-c3cc(NC(=O)c4ccnc(C(F)F)c4)cnc3C)c2)ccn1 [Example 330] | 
1000 to 10000 | 1000 to 10000 | 1000 to 10000 | CNC(=O)c1cc(-c2cnnc(-c3cc(NC(=O)CCC(C)(C)C#N)cnc3C)c2)ccn1 [Example 333] | 
1000 to 10000 | 100 to 500 | 1000 to 10000 | COC(=O)Nc1cc(-c2cnnc(-c3cc(NC(=O)c4ccnc(C(C)(C)F)c4)cnc3C)c2)ccn1 [Example 361] | 
1000 to 10000 | 100 to 500 | 1000 to 10000 | COC(=O)Nc1cc(-c2cnnc(-c3cc(NC(=O)c4ccnc(C5CC5)c4)cnc3C)c2)ccn1 [Example 362] | 
1000 to 10000 | 500 to 1000 | 1000 to 10000 | COC(=O)Nc1cc(-c2cnnc(-c3cc(NC(=O)c4ccnc(C(F)F)c4)cnc3C)c2)ccn1 [Example 363] | 
1000 to 10000 | 100 to 500 | 1000 to 10000 | CNC(=O)c1cc(-c2cnnc(-c3cc(NC(=O)c4cn(C(C)(C)C)nn4)ccc3C)c2)ccn1 [Example 366] | 
1000 to 10000 | 1000 to 10000 | 1000 to 10000 | Cc1ccc(NC(=O)c2ccnc(C(C)(C)C#N)c2)cc1-c1cc(-c2ccnc(C(=O)NC3CC3)c2)cnn1 [Example 372] | 

Reference: US12319655B2, “RAF kinase inhibitors and methods of use thereof” (Deciphera Pharmaceuticals, LLC, priority 2021, dated 2025)
